Source: EP0001516A1, “Beta-Lactam compounds, processes for their preparation, pharmaceutical compositions containing them and intermediates of use in their preparation” (GLAXO GROUP LIMITED, priority 1977, dated 1979)

Key:
[1] = target: T1, partially purified β-lactamase TEM (Escherichia coli, UniProt P62593); experiment: β-Lactamase inhibition (hydrolysis of ampicillin); format: biochemical; settings: ampicillin sodium 500 µg/ml, 37°C, pH7, read-out: μg/ml of compound giving 50% inhibition of hydrolysis of ampicillin (converted)
T1 construct: partially purified β-lactamases from Escherichia coli (either TEM or RPI); endogenous in cells; host or cells: Escherichia coli carrying the TEM plasmid, enzyme partially purified from the bacterium
Protocol: (§1) The compounds have been tested for their inhibitory activity against partially purified β-lactamases from Escherichia coli (either TEM or RPI), Klebsiella aerogenes (K1) and Staphylococcus aureus (PCI). The substrate used was ampicillin sodium.
(§2) Ampicillin sodium at a concentration of 500 µg/ml was reacted with the enzyme at 37°C and pH7. The enzyme concentration was such as to destroy all the ampicillin within 10 minutes. The reaction was followed spectrophotometrically by observing the loss of absorption at 238 nm. Concentrations of the compound were added to inhibit the reaction, and the I5O value represents µg/ml of compound halving the initial velocity of hydrolysis of ampicillin.

[2] = target: T2, partially purified β-lactamase PCI (Staphylococcus aureus, UniProt P00807); experiment: β-Lactamase inhibition (hydrolysis of ampicillin); format: biochemical; settings: ampicillin sodium 500 µg/ml, 37°C, pH7, read-out: μg/ml of compound giving 50% inhibition of hydrolysis of ampicillin (converted)
T2 construct: partially purified β-lactamases from Escherichia coli (either TEM or RPI), Klebsiella aerogenes (K1) and Staphylococcus aureus (PCI); endogenous in cells; host or cells: Staphylococcus aureus (PCI), enzyme partially purified from the producing bacterium
Protocol: as §1, §2

[3] = target: partially purified β-lactamase K1; experiment: β-Lactamase inhibition (hydrolysis of ampicillin); format: biochemical; settings: β-lactamase KI; ampicillin sodium 500 µg/ml, 37°C, pH7
Protocol: as §1, §2

[4] = system: K. aerogenes 1963E; experiment: Synergy testing with amoxycillin (MIC, agar dilution); format: cell-based
Text: (§3) Serial two-fold dilutions of freshly prepared test solution were made into Oxoid No. 1 Nutrient agar with or without added enrichment and poured into petri dishes. Plates were innoculated with a multipoint innoculator with innoculum containing approximately 10^5 colony forming units of the organisms shown in Table 1, all of which are clinical isolates.
(§4) Method as for 1, incorporating amoxycillin in serial two-fold dilutions along with a sub-inhibitory, fixed concentration of the test clavulanic acid derivative, as shown in the Table. All of the organisms are clinical isolates.

[5] = system: Pr. rettgeri 1356E; experiment: as above; format: cell-based
Text: as §3, §4

[6] = system: E. coli (TEM^+) 1193E; experiment: as above; format: cell-based
Text: as §3, §4

[7] = Toxicity in mice; settings: mouse, in vivo, ip; administered intraperitoneally to mice
[8] = system: K. aerogenes 1522E; experiment: Minimum Inhibitory Concentration (MIC), agar dilution; format: cell-based; settings: 18 hours at 37°C
Text: as §3

[9] = system: E. coli 851E; experiment: as above; format: cell-based; settings: 18 hours at 37°C
Text: as §3

[10] = system: E. cloacae 1321E; experiment: as above; format: cell-based; settings: 18 hours at 37°C
Text: as §3

[11] = system: E. cloacae 1051E; experiment: as above; format: cell-based; settings: 18 hours at 37°C
Text: as §3

[12] = system: S. marcescens 1324E; experiment: as above; format: cell-based; settings: 18 hours at 37°C
Text: as §3

[13] = system: H. influenzae 1184E; experiment: as above; format: cell-based; settings: 18 hours at 37°C
Text: as §3

[14] = system: Staph. aureus 853E; experiment: as above; format: cell-based; settings: 18 hours at 37°C
Text: as §3

[15] = system: Micrococcus SP 1810E; experiment: as above; format: cell-based; settings: 18 hours at 37°C
Text: as §3

[16] = system: Staph. aureus 853E; experiment: Synergy testing with amoxycillin (MIC, agar dilution); format: cell-based
Text: as §3, §4

[17] = in the presence of 1µg/ml of compound
[18] = in the presence of 4µg/ml of compound

T2 sequence (P00807 25-281): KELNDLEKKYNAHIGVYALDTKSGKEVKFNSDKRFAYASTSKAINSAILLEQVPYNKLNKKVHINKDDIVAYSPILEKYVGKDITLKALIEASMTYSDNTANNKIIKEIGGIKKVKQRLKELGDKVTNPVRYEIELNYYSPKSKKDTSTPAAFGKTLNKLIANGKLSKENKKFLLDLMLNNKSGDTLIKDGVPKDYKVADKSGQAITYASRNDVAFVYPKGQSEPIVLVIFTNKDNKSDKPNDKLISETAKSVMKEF
T1 sequence (P62593 24-286 limits assumed): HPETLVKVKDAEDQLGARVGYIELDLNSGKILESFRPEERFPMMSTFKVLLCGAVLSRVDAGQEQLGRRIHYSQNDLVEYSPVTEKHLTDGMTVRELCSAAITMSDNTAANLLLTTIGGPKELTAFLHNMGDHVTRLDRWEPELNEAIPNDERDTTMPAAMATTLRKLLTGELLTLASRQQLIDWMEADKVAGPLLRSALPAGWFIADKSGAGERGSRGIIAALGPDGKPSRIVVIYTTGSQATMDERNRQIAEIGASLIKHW

| Compound | IC50 [1] [nM] | IC50 [2] [nM] | μg/ml of compound giving 50% inhibition of hydrolysis of ampicillin [3] [µg/mL] | MIC of amoxycillin [4, 17] [µg/mL] | MIC of amoxycillin [5, 17] [µg/mL] | MIC of amoxycillin [5, 18] [µg/mL] | MIC of amoxycillin [6, 17] [µg/mL] | LD50 [7] [mg/kg] | MIC (agar dilution) of compound [8] [µg/mL] | MIC (agar dilution) of compound [9] [µg/mL] | MIC (agar dilution) of compound [10] [µg/mL] | MIC (agar dilution) of compound [11] [µg/mL] | MIC (agar dilution) of compound [12] [µg/mL] | MIC (agar dilution) of compound [13] [µg/mL] | MIC (agar dilution) of compound ([14]; Staph. aureus 835E) [µg/mL] | MIC (agar dilution) of compound [15] [µg/mL] | MIC (agar dilution) of compound ([14]; Staph. aureus 853E) [µg/mL] | further results |
| --- | --- | --- | --- | --- | --- | --- | --- | --- | --- | --- | --- | --- | --- | --- | --- | --- | --- | --- |
| CCOC(=O)c1nnn(C/C=C2\O[C@@H]3CC(=O)N3[C@H]2C(=O)O)c1C(=O)OCC [Example 2, Sodium (3R,5R,Z)-2-[2-(4,5-diethoxcarbonl-1,2,3-triazol-1-yl)-ethylidene]-clavam-3-carboxylate] | 761 | 5330 | 0.8 |  |  |  |  |  |  |  |  |  |  |  |  |  |  |  |
| CCOC(=O)c1cn(C/C=C2\O[C@@H]3CC(=O)N3[C@H]2C(=O)O)nn1 [Example 4] |  | 419 | 0.35 | 2 | 125 | 4 | > 250 | > 500 | 8 | 4 | 16 | 16 | 125 | 62 | <0.1 | <0.1 |  |  |
| CC(=O)c1cn(C/C=C2\O[C@@H]3CC(=O)N3[C@H]2C(=O)O)nn1 [Example 6, Sodium (3R,5R,Z)-2-[2-(4-acetyl-1,2,3-triazol-l-yl)-ethlidene]-clavam-3-carboxylate] |  | 616 | 0.155 |  |  |  |  | > 500 | 8 | 4 | 8 | 8 | 62 | 62 | <0.1 | <0.1 |  |  |
| O=C(O)c1cn(C/C=C2\O[C@@H]3CC(=O)N3[C@H]2C(=O)O)nn1 [Example 8, Disodium (3R,5R.Z)-2-[2-(4-carboxy-1.2.3-triazol-l-yl)-ethylidene]-clavam-3-carboxylate] | 374 | 9860 | 0.22 |  |  |  |  |  | 16 | 8 | 8 | 16 | 31 | 31 | 8 | 8 |  |  |
| CC(=O)c1cnnn1C/C=C1\O[C@@H]2CC(=O)N2[C@H]1C(=O)O [Example 10, Sodium (3R,5R.Z)-2-[2-(5-acetvl-1.2,3-triazol-l-yl)-ethylidene]-clavam-3-carboxylate] | 1980 | 2400 | 0.62 |  |  |  |  |  |  |  |  |  |  |  |  |  |  |  |
| NC(=O)c1cn(C/C=C2\O[C@@H]3CC(=O)N3[C@H]2C(=O)O)nn1 [Example 12] | 426 | 1230 | 0.34 | 1 | 8 | 1 | 62 |  | 8 | 4 | 4 | 4 | 8 | 31 |  | 0.2 | 0.5 | MIC of amoxycillin [4, 18]: < 0.1 µg/mL; MIC of amoxycillin [6, 18]: 1 µg/mL |
| CNC(=O)c1cn(C/C=C2\O[C@@H]3CC(=O)N3[C@H]2C(=O)O)nn1 [Example 14, Sodium (3R,5R.Z)-2-{2-[4-(N-methylcarbamoyl)-1.2.3-triazol-1-yl]-ethylidene}-clavam-3-carboxylate] |  | 2180 | 0.7 | 8 | 8 | 1 | 62 | > 500 | 16 | 8 | 16 | 16 | 31 | 31 |  | 1 | 1 | MIC of amoxycillin [4, 18]: 0.2 µg/mL; MIC of amoxycillin [6, 18]: 4 µg/mL; MIC of amoxycillin [16, 17]: < 0.1 µg/mL |
| N#Cc1cn(C/C=C2\O[C@@H]3CC(=O)N3[C@H]2C(=O)O)nn1 [Example 17, Sodium (3R,5R,Z)-2-[2-(4-cyano-1,2,3-triazol-1-yl)-ethylidene]clavam-3-carboxylate] | 363 | 2540 | 0.39 | 2 | 31 | 2 | 31 | > 500 | 8 | 2 | 4 | 4 | 31 | 16 | <0.1 |  |  | MIC of amoxycillin [4, 18]: 0.5 µg/mL |
| COC(=O)c1cn(C/C=C2\O[C@@H]3CC(=O)N3[C@H]2C(=O)O)nn1 [Example 19, Sodium (3R,5R,Z)-2-[2-(4-methoxycarbonyl-1,2,3-triazol-1-y)ethylidene]clavam-3-carboxylate] |  |  |  |  | 16 | 1 |  | > 500 | 16 | 4 | 16 | 16 | 62 | 62 |  |  | 0.5 |  |
| O=C(O)[C@H]1/C(=C/Cn2ccnn2)O[C@@H]2CC(=O)N21 [Example 22] |  |  |  |  |  |  |  |  | 8 | 4 | 8 | 8 | 8 | 16 |  |  | 2 |  |
| CC1(C)S[C@@H]2[C@H](NC(=O)[C@H](N)c3ccc(O)cc3)C(=O)N2[C@H]1C(=O)O [amoxycillin, reference compound] |  |  |  |  |  |  |  |  |  |  |  |  |  |  |  |  |  | MIC of amoxycillin ([4]; amoxycillin alone): 62 µg/mL; MIC of amoxycillin ([5]; amoxycillin alone): > 250 µg/mL; MIC of amoxycillin ([6]; amoxycillin alone): > 250 µg/mL; MIC of amoxycillin ([16]; amoxycillin alone): 2 µg/mL |
